Legend:
[1] = biological target: Complex I (Homo sapiens, UniProt P49821+P56556); details: normal fibroblast Complex I; DPI in reaction buffer (FIG. 28)
Procedure: (§1) Mitochondria (human heart, human fibroblast or bovine heart) were solubilized at 5 mg/ml mitochondrial protein, 1% wt/vol lauryl maltoside, 100 mM NaCl, 25 mM HEPES pH 7.5, and the protease inhibitors pepstatin (0.5 μg/ml), leupeptin (0.5 μg/ml) and PMSF (1 mM). The samples were incubated at 4° C. for 30 minutes and the insoluble material removed by centrifugation at 16,000×g for 20 minutes. Solubilized mitochondria were diluted to the desired concentration in 150 mM NaCl, 50 mM Tris-HCl, pH 7.5 containing 2.5% bovine serum albumin as a blocking and stabilization agent.
(§2) After the entire sample wicked up into the nitrocellulose (approximately 15 minutes), the stick was transferred to a second well containing 50 μl of wash buffer (150 mM NaCl, 50 mM Tris-HCl, pH 7.5), which was allowed to wick up the stick (approximately 15 minutes). The absorbent pad was then removed and the entire dipstick incubated in a tube containing 3 ml wash buffer for approximately 15 minutes. The washed dipstick (with the immunocaptured OXPHOS complex of interest) was then transferred to the appropriate enzyme reaction buffer to reveal enzyme activity as described below.
Complex I. The Complex I reaction buffer solution contained 0.1 mg/ml NADH, 2.5 mg/ml NBT in 2 mM Tris-HCl, pH 7.4. […]

[2] = biological target: T1, recombinant human IF1, His-tagged (UniProt Q9UII2)
T1 sequence: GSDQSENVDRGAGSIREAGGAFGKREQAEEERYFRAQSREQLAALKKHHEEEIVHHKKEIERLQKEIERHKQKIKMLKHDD

[3] = biological target: T2, C-V-IP (inhibitor protein IF1), human (UniProt Q9UII2)
T2 sequence: T1 sequence

[4] = biological target: T3, Complex IV (cytochrome c oxidase) (Bos taurus, UniProt P00396); test: Complex IV (cytochrome c oxidase) activity, ferrocytochrome c oxidation at 550 nm; format: biochemical, bovine; details: mitochondrial membranes exposed to up to 1600 μM; membranes and isolated enzyme (FIG. 24A)
T3 construct: from tissue; host or cells: bovine heart mitochondria
Procedure: 4. Fe^3Fe^2+ Catalyzed Oxidation of Mitochondria. Mitochondria at 5 mg/mL in 25 mM KH2PO4 pH 7.2, 5 mM MgCl2 were incubated for 0, 0.5, 1, 2, or 4 hours with 1 mM FeCl3/25 mM sodium ascorbate. Incubation could not be performed for less than 0.5 h because iron could only be removed by rapid dialysis, which was performed for 30 min against 25 mM potassium phosphate pH 7.2, 5 mM MgCl2 using 12000 Da MWCO dialysis membrane (Spectrapor). After oxidation, mitochondrial membranes were subjected to the Complex IV activity assay described below. The Complex IV enzyme was then isolated by the immunocapture extraction method above.
5. Peroxynitrite Catalyzed Oxidation of Mitochondria. […] Following this oxidative treatment, Complex IV activity was measured before and after Complex IV immunocapture.
6. […] Potassium cyanide-sensitive Complex IV activity was measured in bovine heart mitochondria or with immunopurified isolated enzyme. […] Reduced bovine heart cytochrome c was purified over a Sephadex G-15 (Pharmacia) column equilibrated with assay buffer, collected in 1 mL fractions, and the concentration measured at 550 nm in a Beckman DU7. The oxidation of ferrocytochrome c was followed at 550 nm in a 1 mL reaction vessel in the DU7 or in a 96 well plate (Corning) using a Victor2 1460 multi-plate reader (Perkin-Elmer) with a narrow band pass 550 nm filter. […]

[5] = system: human fibroblasts (cell strain MRC5); format: cell-based
Procedure: Normal, human fibroblasts (cell strain MRC5) were treated with DCC for five to seven population doublings. Complex IV subunit I in treated fibroblasts was detected immunocytochemically with mAb RAC#18-1D6E1A8 using standard protocols (Janes et al., J. Histochem. Cytochem., 52: 1011-1018, 2004; RAC#18-1D6E1A8 is commercially available from Molecular Probes, MitoScience, and Abcam). Subunit I levels were determined relative to mitochondrial mass measured by porin content (a mitochondrial outer membrane protein encoded by nuclear DNA). Porin content was also determined immunocytochemically using porin-specific mAb 31HL (available from Calbiochem). mtDNA depletion in DCC-treated fibroblasts was detected using real time PCR and FISH with a mtDNA probe in accordance with commonly used methods (see, Janes et al., J. Histochem. Cytochem., 52: 1011-1018, 2004).

[6] = biological target: human mtDNA polymerase γ (Homo sapiens, UniProt P54098); details: cited from earlier work
[7] = system: Complex I (NADH:UQ1 oxidoreductase); test: Immunocaptured Complex I NADH:UQ1 oxidoreductase microplate activity assay; format: biochemical; details: 16 μg heart mitochondria per well; 240 ng rotenone (FIG. 27)
Procedure: In brief, 1 μg mAb RAC#24-20D1AB7 was added per well (50 μl of a 20 μg/ml solution in PBS) on a protein G-coated 96-well plate, incubated overnight at 4° C., then washed three times with PBS. Then, heart mitochondria solubilized in lauryl maltoside as previously described and diluted in PBS were added at 16 μg (♦), 8 μg (▪), 4 μg (▴) and 0 μg (●) per well in 50 μl aliquots and incubated at room temperature for 2 hours. The wells then were washed three times with 200 μl/well of 20 mM Tris/HCl, pH 7.5, 50 mM KCl, 0.015% lauryl maltoside. A phospholipid solution (see below) was added at 40 μl/well, incubated for 45 minutes at 4° C. and then 200 μl of assay solution (25 mM KPi pH 7.2, 5 mM MgCl2, 2 mM KCN, 260 μM NADH, and 200 μM UQ1) was added directly to the phospholipid solution. The oxidation of NADH was measured by following the decrease of the absorbance at 340 nm. Absorbance changes were measured at 340 nm with a Victor2 from Perkin Elmer for two hours.
The phospholipid stock solution was made by mixing 0.76 ml of 10 mg/ml egg-yolk phosphatidyl choline, 0.38 ml of 5 mg/ml egg-yolk phosphatidylethanolamine, and 0.1 ml of 5 mg/ml cardiolipin in round bottom flask. This mixture was dried under N2, resuspended in 4.25 ml buffer I (20 mM Tris/HCl pH 7.5, 50 mM KCl), and vortexed. […]

[8] = biological target: Complex IV (Bos taurus, UniProt P00396)
Procedure: as §1, §2
Complex IV. The Complex IV reaction buffer solution contained 0.5 mg/ml 3,3′ diaminobenzidine-tetrachloride (DAB) and 0.1 mM reduced cytochrome c in PBS, pH 7.4. […]

[9] = system: human mitochondrial F1/F0 ATPase (Complex V); test: ATPase activity of immunocaptured F1/F0 ATPase, 96-well; format: biochemical
Procedure: Solubilization. Samples were thawed and placed in 25 mM HEPES pH 7.5 (to dissociate F1F0/IF1 interactions) or 10 mM […] (Anatrace) pH 6.5 (to retain F1F0/IF1 interactions), containing 0.4% (w/v) […], and the protease inhibitors leupeptin (0.5 μg/ml), pepstatin (0.5 μg/ml) and PMSF (1 mM). Mitochondria were solubilized at 5 mg/ml and whole cells were solubilized at 2×10^7 cells/ml. Samples were mixed well and then kept on ice for 30 minutes with occasional agitation. Insoluble material was then removed by centrifugation at 16,000×g for 20 minutes at 4° C.
Immunocapture. Assays were run in 96-well plates (Falcon Probind™) using 100 μl/well. […] To control for non-specific adsorption of ATPase, a non-specific mouse monoclonal antibody was used as a null capture mAb. Wells were then loaded with solubilized test samples diluted in TBS with 2.5% BSA, incubated for 2 hours at room temperature and then washed 4 times with TBS.
ATPase activity. ATPase reaction buffer (25 mM HEPES pH 7.5 or 10 mM MOPS pH 6.5, with 25 mM KCl, 5 mM MgCl2, 5 mM KCN and 2 mM ATP) was added at 100 μl/well and incubated for 3 hours at 37° C. The reaction was stopped and free Pi generated by ATP hydrolysis was detected essentially as described by Walker et al. (Meth. Enzymol., 260: 163-190, 1995) by addition of 0.5% ammonium molybendate in 0.7 M H2SO4 (42 μl/well) followed by 10% ascorbic acid (4 μl/well). After incubation for 30 minutes at room temperature to allow color development, absorbance was measured at 690 nm.
IF1 Stripping Conditions. IF1 was dissociated from previously immunocaptured IF1/F1F0 complexes by exposure to IF1 stripping buffer (30 mM Tris-sulfate pH 8, 250 mM KCl, 2 mM EDTA, 75 mM sucrose) for 30 minutes at 37° C. (Van Raaij et al., Biochem. 35: 15618-15625, 1996). The wells were then washed with either a pH 7.5 wash buffer (TBS) or a pH 6.5 wash buffer (10 mM MOPS pH 6.5, 150 mM NaCl and 1 mM MgCl2), and ATPase activity measured at either pH 7.5 or pH 6.5 as described above.
IF1 Addition Conditions. Recombinant human IF1 was obtained by PCR-based amplification of the appropriate gene from a human heart CDNA library (Clontech), cloning into pET15b (Novagen), transformation of E. coli and overexpression and purification of the His-tagged protein on a Ni column by standard protocols (Novagen). Isolated protein was diluted in pH 6.5 wash buffer (as described above) containing 1 mM ATP and incubated with previously immunocaptured F1F0. The wells were then washed with pH 6.5 wash buffer and ATPase activity measured at pH 6.5 as described above.

Sequence of human mtDNA polymerase γ (P54098 whole entry): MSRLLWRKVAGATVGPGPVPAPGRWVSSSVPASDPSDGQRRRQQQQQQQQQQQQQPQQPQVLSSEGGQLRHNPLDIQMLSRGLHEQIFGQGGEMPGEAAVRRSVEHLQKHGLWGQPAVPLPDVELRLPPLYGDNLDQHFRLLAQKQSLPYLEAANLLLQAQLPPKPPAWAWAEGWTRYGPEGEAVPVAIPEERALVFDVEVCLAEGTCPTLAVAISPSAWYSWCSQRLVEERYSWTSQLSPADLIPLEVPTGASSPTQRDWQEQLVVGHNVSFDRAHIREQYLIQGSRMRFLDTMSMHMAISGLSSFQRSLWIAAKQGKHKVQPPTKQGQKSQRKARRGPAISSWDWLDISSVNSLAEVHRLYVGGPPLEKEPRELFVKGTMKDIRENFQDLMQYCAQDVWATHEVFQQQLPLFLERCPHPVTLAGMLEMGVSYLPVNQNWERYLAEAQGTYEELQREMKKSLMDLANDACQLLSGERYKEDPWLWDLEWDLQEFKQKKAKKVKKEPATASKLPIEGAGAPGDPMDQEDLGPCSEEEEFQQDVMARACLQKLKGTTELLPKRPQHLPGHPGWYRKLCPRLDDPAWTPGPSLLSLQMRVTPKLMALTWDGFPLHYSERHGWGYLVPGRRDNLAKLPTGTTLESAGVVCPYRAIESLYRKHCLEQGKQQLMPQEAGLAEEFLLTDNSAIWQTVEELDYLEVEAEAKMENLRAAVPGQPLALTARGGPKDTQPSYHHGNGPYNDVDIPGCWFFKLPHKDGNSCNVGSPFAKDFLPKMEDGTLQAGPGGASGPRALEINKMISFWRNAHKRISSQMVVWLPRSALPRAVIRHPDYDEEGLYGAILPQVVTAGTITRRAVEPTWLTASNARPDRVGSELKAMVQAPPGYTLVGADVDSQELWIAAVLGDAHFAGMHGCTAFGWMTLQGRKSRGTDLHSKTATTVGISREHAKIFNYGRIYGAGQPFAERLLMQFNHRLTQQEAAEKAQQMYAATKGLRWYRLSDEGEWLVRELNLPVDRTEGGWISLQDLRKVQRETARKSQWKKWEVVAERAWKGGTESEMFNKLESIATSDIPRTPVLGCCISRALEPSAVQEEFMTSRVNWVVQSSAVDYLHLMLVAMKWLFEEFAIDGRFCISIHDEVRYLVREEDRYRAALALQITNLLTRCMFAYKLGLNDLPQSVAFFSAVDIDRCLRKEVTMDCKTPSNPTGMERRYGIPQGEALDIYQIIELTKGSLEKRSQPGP
Sequence of Complex I (P49821 21-464): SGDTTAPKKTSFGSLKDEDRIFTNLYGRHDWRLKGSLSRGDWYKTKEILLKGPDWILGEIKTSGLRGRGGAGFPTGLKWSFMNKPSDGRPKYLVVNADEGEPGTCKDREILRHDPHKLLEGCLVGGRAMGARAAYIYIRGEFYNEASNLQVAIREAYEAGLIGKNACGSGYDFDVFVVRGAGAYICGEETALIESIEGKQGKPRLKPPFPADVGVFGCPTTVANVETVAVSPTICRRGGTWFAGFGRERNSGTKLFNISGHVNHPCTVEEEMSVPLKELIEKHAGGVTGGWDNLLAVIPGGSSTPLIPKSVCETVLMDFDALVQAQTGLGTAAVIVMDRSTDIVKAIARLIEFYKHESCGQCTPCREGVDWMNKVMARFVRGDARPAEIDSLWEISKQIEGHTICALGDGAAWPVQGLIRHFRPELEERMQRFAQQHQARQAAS
Sequence of Complex I (P56556 whole entry): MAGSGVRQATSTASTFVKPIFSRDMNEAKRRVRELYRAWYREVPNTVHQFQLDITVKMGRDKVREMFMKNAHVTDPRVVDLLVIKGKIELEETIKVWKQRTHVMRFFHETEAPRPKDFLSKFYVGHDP

Molecule: c1ccc2c(c1)[I+]c1ccccc1-2 [DPI, diphenyleneiodonium]
- effect on Complex I activity dipstick signal [1]: reduced signal

Molecule: Complex V (F1/F0 ATPase), human
- ATP hydrolysis activity [2]: addition of recombinant IF1, which reduced the rate of ATP hydrolysis to that before stripping
- ATP hydrolysis activity [3]: the enzyme could be greatly activated (>10-fold) by conditions that strip the IF1 from the protein

Molecule: O=NOO [peroxynitrite]
- inhibition of Complex IV [4]: ~50%

Molecule: Nc1ccn([C@H]2CC[C@@H](CO)O2)c(=O)n1 [DDC, zalcitabine]
- depletion of mtDNA from fibroblasts [5]: within three population doublings
- inhibition of isolated human mtDNA polymerase γ (hierarchy DDC≧DDI≧D4T≧3TC≧AZT≧ABV) [6]: inhibited most dramatically

Molecule: C=C(C)[C@H]1Cc2c(ccc3c2O[C@@H]2COc4cc(OC)c(OC)cc4[C@@H]2C3=O)O1 [rotenone]
- fraction of immunocaptured NADH:UQ1 oxidoreductase activity sensitive to inhibition [7]: approximately 30%

Molecule: [N-]=[N+]=[N-] [azide]
- inhibition of oxidase activity in the Complex IV capture zone [8]: near complete inhibition

B1: recombinant IF1: His-tagged recombinant human inhibitor protein of F1/F0 ATPase expressed in E. coli (protein)
chain: T1 sequence
modifications: left off: small tags and cut ends
- effect on stripped F1/F0 ATPase from GM00028 and MRC5 cells ([9]; 5 μg/ml (FIG. 9)): inhibited
- effect on ATP hydrolysis of IF1-stripped immunocaptured F1/F0 ATPase ([9]; human heart mitochondria, assayed at pH 6.5 (FIG. 6)): reduced the rate of ATP hydrolysis to that before stripping
